Data on 1 molecule can be found in BindingDB's records for PubMed 40104800 (Jinan University).

Each structure is given as a SMILES string.

The target of the test is Eukaryotic elongation factor 2 kinase (mouse). In words: Inhibition of eEF2K in mouse HT-22 cells preincubated for 20 mins followed by [33P]-ATP addition measured after 120 mins by radiometric Hotspot kinase assay.

For `C=C(c1[nH]c2ccccc2c1CN1C/C(=C/C)[C@@H]2CC(=O)c3[nH]c4ccccc4c3C[C@H]1C2C(=O)OC)[C@H]1CCN(C)C/C1=C\C` (stereo partly specified), half-maximal inhibition (IC50) required 136 µM.
